Results taken from publication PMC5373622, “Screening for AMPA receptor auxiliary subunit specific modulators” (PLoS ONE, 2017).

What was measured:
[1] = target: T1, tethered GluA2flip(Q)-stargazin (A2Q-stg cells) (Rattus norvegicus, UniProt P19491); experiment: Calcium flux (Fluo-8) glutamate potency fold-shift assay on A2Q-stg cells; assay type: cell-based; details: 30 μM compound
Description: (§1) In this assay, a maximal dose (30 μM) of each compound (Fig 4Di) was incubated on cells for 120 secs and then a CRC for glutamate ranging from 4 mM to 10 pM was collected (Fig 4Dii). A rightward shift of the CRC for glutamate to a higher EC50 indicates NAM activity and a leftward shift to a lower EC50 indicates PAM activity (Fig 4E). […] These compounds, considered active, were then evaluated as a CRC of the compounds in the calcium flux assay.

GluA2flip(Q) (A2Q cells) = target: T2, GluA2flip(Q) (A2Q cells) (Homo sapiens, UniProt P42262); experiment: Calcium flux (Fluo-8) compound CRC assay on A2Q cells; assay type: cell-based
T2 construct: FLAG (C); expressed in transfected cells
T2 sequence (P42262 25-883 isoform P42262-2 limits assumed): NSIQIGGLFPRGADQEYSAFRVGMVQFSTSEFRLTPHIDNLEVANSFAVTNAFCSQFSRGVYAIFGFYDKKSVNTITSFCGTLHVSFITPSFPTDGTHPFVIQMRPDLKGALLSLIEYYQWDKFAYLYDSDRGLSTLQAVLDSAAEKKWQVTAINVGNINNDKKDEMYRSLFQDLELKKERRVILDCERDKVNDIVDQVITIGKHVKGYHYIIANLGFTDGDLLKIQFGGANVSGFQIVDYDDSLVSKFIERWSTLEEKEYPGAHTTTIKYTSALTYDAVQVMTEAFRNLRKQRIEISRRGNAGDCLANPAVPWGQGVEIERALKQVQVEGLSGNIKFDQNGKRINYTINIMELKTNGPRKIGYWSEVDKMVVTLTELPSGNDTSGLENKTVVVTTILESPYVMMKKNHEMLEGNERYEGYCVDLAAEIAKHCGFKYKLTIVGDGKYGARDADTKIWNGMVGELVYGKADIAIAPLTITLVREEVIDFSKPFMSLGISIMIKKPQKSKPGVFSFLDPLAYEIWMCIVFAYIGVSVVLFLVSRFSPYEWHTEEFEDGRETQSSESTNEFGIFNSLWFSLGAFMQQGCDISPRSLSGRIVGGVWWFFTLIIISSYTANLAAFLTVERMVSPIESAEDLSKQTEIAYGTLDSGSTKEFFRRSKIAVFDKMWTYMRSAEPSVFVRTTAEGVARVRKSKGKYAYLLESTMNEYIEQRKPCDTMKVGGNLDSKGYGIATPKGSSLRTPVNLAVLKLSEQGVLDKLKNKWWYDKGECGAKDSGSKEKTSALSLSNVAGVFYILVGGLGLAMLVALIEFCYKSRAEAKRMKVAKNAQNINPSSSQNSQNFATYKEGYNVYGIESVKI

[2] = target: T3, GluA2flip(Q)-CNIH3 (A2Q-C3 cells) (Homo sapiens, UniProt P42262); experiment: Calcium flux (Fluo-8) glutamate potency fold-shift assay on A2Q-C3 cells; assay type: cell-based; design: FLAG (C); expressed in transfected cells; details: 30 μM compound
T3 sequence (P42262 25-883 isoform P42262-2 limits assumed): as above
T3 sequence (Q8TBE1 whole entry partner): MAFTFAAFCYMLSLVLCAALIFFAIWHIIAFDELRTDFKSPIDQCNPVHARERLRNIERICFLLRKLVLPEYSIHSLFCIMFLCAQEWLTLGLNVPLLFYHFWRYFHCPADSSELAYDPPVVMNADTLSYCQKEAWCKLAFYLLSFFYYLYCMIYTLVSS
Description: as §1

[3] = target: GluA2flip(R)-CNIH3 (A2R-C3 TetON HEK293 cells) (Homo sapiens, UniProt P42262, Q607R); experiment: VSD assay (counter-screen, CRC) on A2R-C3 cells; details: for concentration at which PAM/NAM activity is evident in raw VSD traces, A2R-C3: raw VSD data
Sequence of GluA2flip(R)-CNIH3 (A2R-C3 TetON HEK293 cells) (P42262 25-883 isoform P42262-2 Q607R limits assumed): as the sequence (P42262 25-883 isoform P42262-2 limits assumed) above, with Q583R counted along it
Sequence of GluA2flip(R)-CNIH3 (A2R-C3 TetON HEK293 cells) (Q8TBE1 whole entry partner): as the sequence (Q8TBE1 whole entry partner) above
Description: Cell lines used in the VSD assays were TetON HEK293 cells. This was the parental cell line for all stable cell lines created. We used GluA2flip(R) TetON HEK cell clone #4 that doxycycline (DOX) dependently expresses GluA2flip(R) (A2R). The A2R cells were used as the base cell line to derive cell lines that co-express auxiliary subunits.
(§3) Greiner 384-pp round-bottom plates containing glutamate for the second add were dispensed by hand using a multi-channel pipet at 5X final concentration. A2R-stg cells were plated in 384-well BD PureCoat amine-coated plates (Corning Life Sciences) at 16k cells/well in DMEM medium supplemented with 10% heat-inactivated FBS and 100U/mL PenStrep antibiotic. […] Cells were incubated overnight (O/N) and washed 4 times in HBSS containing 20 mM HEPES, pH 7.4, on an ELX405CW liquid aspirator and dispenser (BioTek). Buffer was left in the wells and an equal amount of 2X FLIPR dye solution was added and incubated on the cells at room temperature for 45 min. Fluorescence signal was collected at 1 Hz using Ex. 480±20 nm/Em. 540±40 nm on a Hamamatsu Functional Drug Screening System 6000 (FDSS). Baseline signal was collected for 10 seconds followed by addition of 10 μl of 5X compound for a final concentration of 10 μM.
This assay was carried out in the same way as the VSD screening assay except a 10-point concentration curve, from 40 μM to 10 nM, was plated in triplicate for each compound on a single 384-well plate. Data were summarized by plotting them as %max GLUslope against log [compound] that was fit to a four-parameter logistical model. %max GLUslope is defined as a normalized GLUslope expressed as a percentage of the mean maximum GLUslope, defined as 100, where background mean vehicle control (VHLslope) were subtracted from both values on a per plate basis. Thus, %max GLU slope = (GLUslope-mean VHLslope/mean maxGLUslope-mean VHLslope).

[4] = target: T3, GluA2flip(Q)-CNIH3 (A2Q-C3 cells); experiment: Calcium flux (Fluo-8) compound CRC assay on A2Q-C3 cells
Description: (§4) Cell lines used in the calcium flux assay were GluA2flip(Q)-FLAG + GSG1L-1D4 pTREt-Va dual expression in TetON HEK cell clone #20 (A2Q-GSG), GluA2flip(Q)-FLAG + CNIH3-1D4 pTREt-Va dual expression in TetON HEK cell clone #8 (A2Q-C3), GluA2flip(Q)-FLAG pTREt-Va in TetON HEK cell clone #5 (A2Q), and tethered GluA2flip(Q)-FLAG-stargazin [28] in pTREt-Va dual expression in TetON HEK cell clone #13 (A2Q-stg) (Summarized in Table 1).
(§5) Compounds that were selected as hits using the VSD assay were subsequently screened against the calcium permeable A2Q-stg and A2Q-C3 cell lines in a glutamate potency fold-shift assay using the calcium sensing dye Fluo-8 (AAT Bioquest cat #21080). This assay is used to measure how pretreatment with compounds shifts the EC50 of glutamate on A2Q-stg and A2Q-C3 cells. 30 μM of each compound was pre-incubated with the cells for 120 secs and then an 11-point glutamate CRC from 4 mM to 10 pM was applied to the cells for 180 sec. […] Greiner 384-pp round-bottom plates containing glutamate solutions were dispensed by hand using a multi-channel pipet at 5X final concentration. […] Sodium butyrate and DOX were added to the cells at 1 mM and 5 μg/mL, respectively, 24 hours before screening. A2Q-stg cells were induced with 10 μg/mL DOX. Cells were incubated O/N and washed 4 times in low calcium buffer on an ELX405CW liquid aspirator and dispenser (BioTek). Buffer was left in the wells and an equal amount of 4.6 μM (2X) Fluo-8 (AAT Bioquest cat #21080) solution with 2.5 mM probenecid was added and incubated on the cells at room temperature for 40 minutes. Probenecid was added to block dye efflux from the cells [29]. Dye was washed off with low calcium buffer using the ELX405CW (BioTek) and plates were immediately inserted into the FDSS (Hamamatsu). Fluorescence signal was collected at 1 Hz using Ex. 480±20 nm/Em. 540±40 nm. Baseline signal was collected for 10 seconds followed by addition of 20 μl of 2X compound for a final concentration of 30 μM. After 290 seconds, 10 μl of a 5X glutamate solution in high calcium buffer (10 mM HEPES, pH 7.4, 140 mM NaCl, 5 mM KCl, 1 mM MgCl2, 9 mM CaCl2, and 10 mM glucose) was added for 180 seconds.
(§6) These compound CRCs were applied to the cells 2 minutes before a 1mM glutamate stimulation. […] Normalized FDSS traces were curve fit to CRCs using the initial GLUslope (GLUslope1) in a 3–6 sec window after glutamate application. CRCs were also plotted for the traces’ area under the curve (AUC) in the GLUmaxmin window. […] Compounds were plotted as %max GLUslope against log [compound] and fit to a four-parameter logistical model as in the VSD.
(§7) Cells were loaded with Fluo-8 and excess dye was washed out. After 120 secs of pre-incubation with compound at concentrations ranging from 30 μM to 30 nM (Fig 4Bi), 1 mM glutamate was added (Fig 4Bii). In the calcium assay, 250 μM was used as the maxGLU dose because the GLUslope1 values decreased at higher concentrations of glutamate, making it the dose with the maximal GLUslope1 response. […] We measured GLUslope in three consecutive time windows, referred to as GLUslope1-3, because three phases were clearly detectable (Fig 4C). The final CRC curves were calculated from GLUslope1, obtained from the first 3–6 sec window.
(§8) The final compound CRC curves were calculated from GLUslope1. […] The AUC measures the accumulation of calcium instead of gating and sometimes produced a CRC fit when GLUslope1 could not derive an EC50 value.

[5] = target: T1, tethered GluA2flip(Q)-stargazin (A2Q-stg cells); experiment: Calcium flux (Fluo-8) compound CRC assay on A2Q-stg cells
Description: as §4, §5
These compound CRCs were applied to the cells 2 minutes before a 1mM glutamate stimulation. […] Normalized FDSS traces were curve fit to CRCs using the initial GLUslope (GLUslope1) in a 3–6 sec window after glutamate application. […]
Cells were loaded with Fluo-8 and excess dye was washed out. […] We measured GLUslope in three consecutive time windows, referred to as GLUslope1-3, because three phases were clearly detectable (Fig 4C). The final CRC curves were calculated from GLUslope1, obtained from the first 3–6 sec window.
The final compound CRC curves were calculated from GLUslope1. […]

[6] = target: GluA2flip(Q)-GSG1L (A2Q-GSG cells) (Homo sapiens, UniProt P42262); experiment: Calcium flux (Fluo-8) compound CRC assay on A2Q-GSG cells
Sequence of GluA2flip(Q)-GSG1L (A2Q-GSG cells) (P42262 25-883 isoform P42262-2 limits assumed): as the sequence (P42262 25-883 isoform P42262-2 limits assumed) above
Sequence of GluA2flip(Q)-GSG1L (A2Q-GSG cells) (Q6UXU4 whole entry partner): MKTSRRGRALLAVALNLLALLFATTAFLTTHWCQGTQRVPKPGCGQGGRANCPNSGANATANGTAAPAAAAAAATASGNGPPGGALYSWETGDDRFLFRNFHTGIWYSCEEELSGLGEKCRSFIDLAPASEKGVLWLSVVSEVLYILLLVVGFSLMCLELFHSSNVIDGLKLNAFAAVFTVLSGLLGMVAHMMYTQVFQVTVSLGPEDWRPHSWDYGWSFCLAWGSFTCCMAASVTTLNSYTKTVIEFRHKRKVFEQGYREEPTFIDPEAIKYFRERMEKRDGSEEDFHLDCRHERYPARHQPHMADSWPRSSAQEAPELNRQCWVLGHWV
Description: as §4, §5, §6, §7, §8

[7] = target: GluA2flip(R)-stargazin (A2R-stg TetON HEK293 cells) (Homo sapiens, UniProt P42262, Q607R); experiment: Voltage-sensitive dye (VSD) assay (primary screen, counter-screen, CRC) on A2R-stg cells; details: for concentration at which PAM/NAM activity is evident in raw VSD traces, A2R-stg: raw VSD data
Sequence of GluA2flip(R)-stargazin (A2R-stg TetON HEK293 cells) (P42262 25-883 isoform P42262-2 Q607R limits assumed): as the sequence (P42262 25-883 isoform P42262-2 limits assumed) above, with Q583R counted along it
Sequence of GluA2flip(R)-stargazin (A2R-stg TetON HEK293 cells) (Q9Y698 whole entry partner): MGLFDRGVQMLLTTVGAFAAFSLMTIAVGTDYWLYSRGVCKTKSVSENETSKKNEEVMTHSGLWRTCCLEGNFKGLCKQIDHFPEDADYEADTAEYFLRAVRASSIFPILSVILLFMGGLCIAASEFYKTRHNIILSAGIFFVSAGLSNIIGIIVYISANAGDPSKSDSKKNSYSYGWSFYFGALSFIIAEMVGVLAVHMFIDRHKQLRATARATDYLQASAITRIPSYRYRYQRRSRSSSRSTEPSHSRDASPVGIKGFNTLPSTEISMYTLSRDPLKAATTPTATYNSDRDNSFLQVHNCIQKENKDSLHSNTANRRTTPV
Description: Cell lines used in the VSD assays were TetON HEK293 cells. […] We used GluA2flip(R) TetON HEK cell clone #4 that doxycycline (DOX) dependently expresses GluA2flip(R) (A2R). The A2R cells were used as the base cell line to derive cell lines that co-express auxiliary subunits.
as §3
Hits were selected from this initial screen using 4 different criteria, which we termed CMPDslope, CMPDmaxmin, GLUslope, and GLUmaxmin. […] GLUslope is the fitted slope of the increase in fluorescence within 10 sec after adding glutamate. GLUmaxmin is the difference in the minimum and maximum value in fluorescence signal reached in the 100 sec window after adding glutamate. Compounds were classified as hits if they differed by 3 standard deviations of the mean for each criterion. Tier 1 hits were classified as those that hit in the GLUslope, GLUmaxmin, and CMPDmaxmin windows. Tier 2 hits were classified as compounds that hit in the GLUslope window and either the GLUmaxmin or CMPDmaxmin window. Tier 3 hits were classified as those that hit in only the GLUslope or the GLUmaxmin window. Tier 4 hits were classified as compounds that hit only in the CMPD window, CMPDslope or CMPDmaxmin. Hit selection was further narrowed using the criterion that their signal must return to near baseline values before entering the glutamate add window.
VSD concentration response curves (CRCs): After the above counter-screens, compounds that remained positive were moved forward to collect complete CRCs for A2R-stg and A2R-C3 cell lines. This assay was carried out in the same way as the VSD screening assay except a 10-point concentration curve, from 40 μM to 10 nM, was plated in triplicate for each compound on a single 384-well plate. Data were summarized by plotting them as %max GLUslope against log [compound] that was fit to a four-parameter logistical model. %max GLUslope is defined as a normalized GLUslope expressed as a percentage of the mean maximum GLUslope, defined as 100, where background mean vehicle control (VHLslope) were subtracted from both values on a per plate basis. Thus, %max GLU slope = (GLUslope-mean VHLslope/mean maxGLUslope-mean VHLslope).

[8] = target: T4, GluA2flip(R) (A2R TetON HEK293 cells) (Homo sapiens, UniProt P42262, Q607R); experiment: VSD counter-screen on A2R cells; assay type: cell-based; details: 10 μM compound
T4 construct: expressed in transfected cells
T4 sequence (P42262 25-883 isoform P42262-2 Q607R limits assumed): as the sequence (P42262 25-883 isoform P42262-2 limits assumed) above, with Q583R counted along it

[9] = target: T5, GluA2flip(R)-stargazin (A2R-stg cells) (Homo sapiens, UniProt P42262, Q607R); experiment: Whole-cell electrophysiology with fast ligand application, A2R-stg cells; assay type: cell-based; details: 40 μM compound
T5 construct: expressed in transfected cells
T5 sequence (P42262 25-883 isoform P42262-2 Q607R limits assumed): as the sequence (P42262 25-883 isoform P42262-2 limits assumed) above, with Q583R counted along it
T5 sequence (Q9Y698 whole entry partner): as the sequence (Q9Y698 whole entry partner) above
Description: (§2) A2R-stg cells were plated on HNO3 washed coverslips coated with 1:20000 poly-d-lysine (incubated for 20 min, washed with PBS 2x and media 1x) for 2 hours. They were induced with 5 μg/mL DOX for 24 hours before recording. A2R cells were plated on 1:60000 poly-d-lysine for 2 hours and induced with 7.5 μg/mL DOX for 30 hours before recording. The cells were lifted from the coverslip after whole cell configuration was achieved and brought in front of the theta tubing. […] Recording was done using a single channel of a Multiclamp700B Amplifier (Axon Instruments) operated by pClamp10 software. Signals were digitized using Digidata1440A (Axon Instruments) at a sampling rate of 50 kHz and low pass filtered at 2kHz. Borosilicate glass capillaries (O.D. 1.5 mm, I.D. 0.86 mm, Sutter) were pulled to manufacture electrodes with pipette resistances of 3.5–5 MΩ.
Standard solution without ligand was the external solution. The ligand solution contained 1mM glutamate in external solution, supplemented with 2mM glucose and 3mM NaCl to facilitate visualizing the interface of the two solutions and recording liquid junction potential after breaking the patch. The 10–90% rise time of liquid junction potential was around 300μsec. VU0627849 was dissolved in external solution containing 1 mM glutamate to a final concentration of 40 μM. Tips of the tubing for each solution were positioned immediately before the opening of one compartment of the theta tubing. Drug-containing and drug-free glutamate solutions were switched using a manual valve located between the solution reservoir and theta glass tube. Solution speed was adjusted by the height of the reservoir using gravity.
We have conducted a preliminary electrophysiological investigation of the compound VU0627849. Using a fast ligand application system, A2R and A2R-stg cells were stimulated with 1mM glutamate using a 100 ms pulse followed by a 50 ms interval and a second 20 ms pulse to evaluate recovery from desensitization (Fig 10A and 10B red traces). […] These effects are drug specific because wash out of VU0627849 restored the original current (Fig 10B, black trace). We also see a small effect on A2R cells that was not seen in the VSD assay (Fig 10A blue trace). VU0627849 acted as a PAM on A2R-stg cells, corroborating our HTS data from the VSD assay.

GluA2flip(R) (A2R cells) = target: T6, GluA2flip(R) (A2R cells) (Homo sapiens, UniProt P42262, Q607R); experiment: Whole-cell electrophysiology with fast ligand application, A2R cells; assay type: cell-based; details: 40 μM compound
T6 construct: expressed in transfected cells
T6 sequence (P42262 25-883 isoform P42262-2 Q607R limits assumed): as the sequence (P42262 25-883 isoform P42262-2 limits assumed) above, with Q583R counted along it
Description: as §2
Standard solution without ligand was the external solution. The ligand solution contained 1mM glutamate in external solution, supplemented with 2mM glucose and 3mM NaCl to facilitate visualizing the interface of the two solutions and recording liquid junction potential after breaking the patch. The 10–90% rise time of liquid junction potential was around 300μsec. VU0627849 was dissolved in external solution containing 1 mM glutamate to a final concentration of 40 μM. […]

T1 sequence (P19491 22-883): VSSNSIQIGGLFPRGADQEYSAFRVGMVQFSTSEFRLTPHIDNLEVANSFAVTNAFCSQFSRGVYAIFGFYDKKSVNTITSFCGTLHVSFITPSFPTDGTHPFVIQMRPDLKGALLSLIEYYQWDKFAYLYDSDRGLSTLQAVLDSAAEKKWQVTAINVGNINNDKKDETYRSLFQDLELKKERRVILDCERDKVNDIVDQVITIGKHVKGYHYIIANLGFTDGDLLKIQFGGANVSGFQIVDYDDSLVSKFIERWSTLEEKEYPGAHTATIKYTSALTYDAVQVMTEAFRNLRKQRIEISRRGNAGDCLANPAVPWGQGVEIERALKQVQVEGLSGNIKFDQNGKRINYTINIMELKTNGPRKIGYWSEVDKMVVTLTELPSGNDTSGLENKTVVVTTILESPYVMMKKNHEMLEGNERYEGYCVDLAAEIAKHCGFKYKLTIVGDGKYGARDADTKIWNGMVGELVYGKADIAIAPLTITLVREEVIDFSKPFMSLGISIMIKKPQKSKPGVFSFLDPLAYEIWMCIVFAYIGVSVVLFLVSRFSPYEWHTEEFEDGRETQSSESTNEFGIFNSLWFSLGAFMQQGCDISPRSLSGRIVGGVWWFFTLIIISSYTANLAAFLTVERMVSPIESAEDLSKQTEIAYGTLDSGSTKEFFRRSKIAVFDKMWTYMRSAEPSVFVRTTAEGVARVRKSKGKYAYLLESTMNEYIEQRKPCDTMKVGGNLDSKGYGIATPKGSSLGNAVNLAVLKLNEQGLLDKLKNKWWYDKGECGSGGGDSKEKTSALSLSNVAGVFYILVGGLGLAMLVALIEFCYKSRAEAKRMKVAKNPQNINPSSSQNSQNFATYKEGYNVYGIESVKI
T1 sequence (Q71RJ2 whole entry partner): as the sequence (Q9Y698 whole entry partner) above, with I257V, E306D, N307S, S313A counted along it

SMILES	PAM/NAM categorisation in glutamate potency fold-shift assay, A2Q-stg [1]	PAM/NAM activity in calcium flux CRC assay, A2Q (GluA2flip(Q) (A2Q cells))	PAM/NAM categorisation in glutamate potency fold-shift assay, A2Q-C3 [2]	IC50 [3]	PAM/NAM activity in VSD assay, A2R-C3 [3]	PAM/NAM activity in calcium flux CRC assay, A2Q-C3 [4]	PAM/NAM activity in calcium flux CRC assay, A2Q-stg [5]	PAM/NAM activity in calcium flux CRC assay, A2Q-GSG [6]	EC50 [7]	PAM/NAM activity in VSD assay, A2R-stg [7]	concentration at which PAM/NAM activity is evident in raw VSD traces, A2R-C3 [3]	concentration at which PAM/NAM activity is evident in raw VSD traces, A2R-stg [7]	other results
COc1ccccc1CC(=O)NC1(c2nc(-c3ccsc3)no2)CCCCC1 [VU0539491]	NAM	Slight NAM activity	NAM	3.2 µM	NAM	slight decrease in signal	Slight NAM activity	PAM	4.2 µM	PAM			
CCCc1c(C(=O)NC2CCCCC2)nnn1-c1ccccc1 [VU0612951]	right-shifts		right-shifts	0.87 µM	NAM		negative trend			NAM	higher than 1 μM	submicromolar	decrease in %max GLUslope across the CRC, A2R-C3 ([3]; VSD CRC 40 μM to 10 nM): ~ 40%; IC50 [7]: 1.5 µM; decrease in %max GLUslope across the CRC, A2R-stg ([7]; VSD CRC 40 μM to 10 nM): ~ 40%
O=C(Cc1cc(-c2ccc3c(c2)OCCO3)on1)NCc1ccccc1 [VU0627849]		PAM			PAM	PAM	PAM	PAM	0.86 µM	PAM	≥ 2.5 µM	≥ 2.5 µM	Activity on A2R cells in counter-screens [8]: did not show any activity; EC50 (GluA2flip(Q) (A2Q cells); CRC from GLUslope1, 1 mM glutamate, PAM, read-out: EC50 Ca2+ Sensing, A2Q): 14.1 µM; positive change in %max GLUslope, A2Q (GluA2flip(Q) (A2Q cells); across calcium flux CRC): > 80%; PAM/NAM activity in electrophysiology, A2R-stg [9]: PAM; change in peak amplitude ([9]; 1 mM glutamate 100 ms pulse, preliminary): no change; amplitude in the second pulse of glutamate ([9]; second 20 ms pulse after 50 ms interval, preliminary): increased amplitude; resensitization ([9]; within 10 ms following initial activation and desensitization, preliminary): delayed increase in resensitization; effect on A2R cells in electrophysiology (GluA2flip(R) (A2R cells)): small effect; EC50 [3]: 0.85 µM; EC50 [4]: 3.1 µM; positive change in %max GLUslope, A2Q-C3 ([4]; across calcium flux CRC): > 80%; increase in response of A2Q-stg cells ([5]; 7.5 and 30 μM compound): ~ 300 arbitrary fluorescence units (AFU); EC50 [6]: 24.9 µM; positive change in %max GLUslope, A2Q-GSG ([6]; across calcium flux CRC): > 80%
